These are literature values, as cited in US10973866B2, “Compositions and methods for treating, inhibiting the onset, and slowing the progression of erectile dysfunction including naturally occurring age related erectile dysfunction” (K.L.R.M., LLC, priority 2010, dated 2021).

For series [1] the following is noted: human, in vivo.
For series [2], the system named is erectile function. The settings on record: men in their 30's with normal erectile function.

The structures appear in SMILES notation.

For `NC(=O)NCCC[C@H](N)C(=O)O` [L-citrulline], the side effects result in series [1] is “no known side effects”. Consider `CCCc1nn(C)c2c(=O)[nH]c(-c3cc(S(=O)(=O)N4CCN(C)CC4)ccc3OCC)nc12` [Viagra], for which, in series [2], the “erectile function as measured by the IIEF” value is “increased erectile function” and the refractory period result is “decrease in the refractory period”.
